# Test results as given in ChEMBL document CHEMBL5465560, “Selectivity Literature for EUbOPEN Chemogenomic Library” (2024).
# Legend:
# [1] = biological target: 5'-AMP-activated protein kinase catalytic subunit alpha-1 (Homo sapiens, UniProt Q13131); test: Selectivity interaction (KinomeScan (DiscoverX)) EUB0000618a PRKAA1; conditions: at 10 µM
# [2] = biological target: Dual specificity tyrosine-phosphorylation-regulated kinase 1B (Homo sapiens, UniProt Q9Y463); test: Selectivity interaction (KinomeScan (DiscoverX)) EUB0000618a DYRK1B; conditions: at 10 µM
# Sequence of Dual specificity tyrosine-phosphorylation-regulated kinase 1B (Q9Y463 whole entry, looked up): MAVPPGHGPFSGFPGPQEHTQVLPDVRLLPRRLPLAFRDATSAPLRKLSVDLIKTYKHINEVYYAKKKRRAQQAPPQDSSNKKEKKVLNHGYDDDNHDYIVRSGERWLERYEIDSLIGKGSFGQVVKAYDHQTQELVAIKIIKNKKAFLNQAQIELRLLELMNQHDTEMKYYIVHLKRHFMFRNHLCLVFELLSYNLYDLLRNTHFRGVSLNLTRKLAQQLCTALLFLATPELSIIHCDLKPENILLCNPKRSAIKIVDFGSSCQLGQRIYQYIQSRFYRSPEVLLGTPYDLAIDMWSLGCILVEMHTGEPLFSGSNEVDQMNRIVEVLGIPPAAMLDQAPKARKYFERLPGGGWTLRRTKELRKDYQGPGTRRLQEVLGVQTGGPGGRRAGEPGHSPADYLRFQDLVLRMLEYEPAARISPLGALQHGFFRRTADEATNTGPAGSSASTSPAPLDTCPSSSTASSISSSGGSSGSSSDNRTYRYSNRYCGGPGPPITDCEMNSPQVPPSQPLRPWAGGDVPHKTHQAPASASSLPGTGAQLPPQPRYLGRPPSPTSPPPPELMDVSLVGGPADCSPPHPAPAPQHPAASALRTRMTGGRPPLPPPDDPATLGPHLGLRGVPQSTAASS
# [3] = biological target: T1, Ephrin type-B receptor 4 (Homo sapiens) (UniProt P54760); test: Selectivity interaction (KinomeScan (DiscoverX)) EUB0000607a EPHB4; conditions: at 10 µM
# T1 sequence (whole entry): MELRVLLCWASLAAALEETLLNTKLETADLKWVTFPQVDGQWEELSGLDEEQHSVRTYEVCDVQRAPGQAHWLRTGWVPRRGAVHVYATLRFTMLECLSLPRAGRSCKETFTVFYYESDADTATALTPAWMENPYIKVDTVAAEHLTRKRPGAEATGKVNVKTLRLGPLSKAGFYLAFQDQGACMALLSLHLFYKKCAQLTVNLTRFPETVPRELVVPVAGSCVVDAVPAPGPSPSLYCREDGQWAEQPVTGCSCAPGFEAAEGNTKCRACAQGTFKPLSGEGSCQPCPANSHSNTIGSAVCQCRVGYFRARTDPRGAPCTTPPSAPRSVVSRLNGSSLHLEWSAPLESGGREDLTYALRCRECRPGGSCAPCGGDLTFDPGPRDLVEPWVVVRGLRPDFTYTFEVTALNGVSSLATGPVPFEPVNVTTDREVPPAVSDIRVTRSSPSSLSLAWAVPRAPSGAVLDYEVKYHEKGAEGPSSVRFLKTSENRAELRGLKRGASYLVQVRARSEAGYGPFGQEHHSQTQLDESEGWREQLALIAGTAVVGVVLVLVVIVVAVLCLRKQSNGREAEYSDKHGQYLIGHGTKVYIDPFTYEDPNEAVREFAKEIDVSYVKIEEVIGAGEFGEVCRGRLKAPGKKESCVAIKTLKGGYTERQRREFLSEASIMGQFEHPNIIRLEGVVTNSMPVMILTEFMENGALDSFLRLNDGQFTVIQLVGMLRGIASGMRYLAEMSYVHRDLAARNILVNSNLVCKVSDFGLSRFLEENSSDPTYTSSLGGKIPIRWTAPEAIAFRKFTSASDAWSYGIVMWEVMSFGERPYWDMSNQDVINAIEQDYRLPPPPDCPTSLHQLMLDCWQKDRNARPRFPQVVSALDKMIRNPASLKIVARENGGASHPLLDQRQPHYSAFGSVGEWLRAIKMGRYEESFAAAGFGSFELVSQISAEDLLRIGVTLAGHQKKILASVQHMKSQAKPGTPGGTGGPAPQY
# [4] = biological target: T2, Serine/threonine-protein kinase 36 (Homo sapiens) (UniProt Q9NRP7); test: Selectivity interaction (KinomeScan (DiscoverX)) EUB0000092b STK36; conditions: at 10 µM
# T2 sequence (whole entry): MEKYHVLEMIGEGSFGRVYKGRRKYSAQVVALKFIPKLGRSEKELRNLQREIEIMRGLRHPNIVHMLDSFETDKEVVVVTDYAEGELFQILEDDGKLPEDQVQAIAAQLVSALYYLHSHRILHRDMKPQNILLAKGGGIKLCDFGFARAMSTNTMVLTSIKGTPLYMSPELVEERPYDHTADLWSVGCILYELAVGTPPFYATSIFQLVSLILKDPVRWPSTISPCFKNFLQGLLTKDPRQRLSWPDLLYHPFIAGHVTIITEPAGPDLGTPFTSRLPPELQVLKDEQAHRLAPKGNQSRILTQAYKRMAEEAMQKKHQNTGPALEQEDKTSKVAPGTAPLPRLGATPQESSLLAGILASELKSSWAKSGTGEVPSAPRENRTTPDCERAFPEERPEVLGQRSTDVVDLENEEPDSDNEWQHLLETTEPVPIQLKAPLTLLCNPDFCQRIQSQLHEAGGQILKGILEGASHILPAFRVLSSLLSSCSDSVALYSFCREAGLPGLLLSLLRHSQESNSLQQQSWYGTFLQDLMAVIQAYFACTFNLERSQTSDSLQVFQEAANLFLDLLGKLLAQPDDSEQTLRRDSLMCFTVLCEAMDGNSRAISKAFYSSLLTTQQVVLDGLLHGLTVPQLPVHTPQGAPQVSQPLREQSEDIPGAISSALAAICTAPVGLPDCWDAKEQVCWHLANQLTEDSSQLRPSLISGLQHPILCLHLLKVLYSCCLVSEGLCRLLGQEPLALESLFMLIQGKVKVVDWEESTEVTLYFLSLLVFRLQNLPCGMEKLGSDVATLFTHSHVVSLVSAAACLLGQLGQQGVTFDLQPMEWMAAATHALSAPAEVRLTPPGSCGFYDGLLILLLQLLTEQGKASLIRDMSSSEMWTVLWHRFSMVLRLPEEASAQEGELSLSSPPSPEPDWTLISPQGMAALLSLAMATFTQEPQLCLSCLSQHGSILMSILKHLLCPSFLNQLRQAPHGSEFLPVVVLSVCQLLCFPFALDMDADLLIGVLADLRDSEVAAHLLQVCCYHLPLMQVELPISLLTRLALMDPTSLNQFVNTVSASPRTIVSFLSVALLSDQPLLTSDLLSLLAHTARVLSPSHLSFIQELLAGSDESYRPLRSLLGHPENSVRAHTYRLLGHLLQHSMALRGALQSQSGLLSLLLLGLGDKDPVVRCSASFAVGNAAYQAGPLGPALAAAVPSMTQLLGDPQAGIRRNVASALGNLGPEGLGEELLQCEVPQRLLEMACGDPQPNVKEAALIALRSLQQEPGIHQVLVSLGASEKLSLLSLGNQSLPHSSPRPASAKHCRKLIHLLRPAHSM
# [5] = biological target: cAMP-dependent protein kinase catalytic subunit alpha (Homo sapiens, UniProt P17612); test: Selectivity interaction (Kinase counterscreening (biochemical assay)) EUB0000604a PRKACA
# Sequence of 5'-AMP-activated protein kinase catalytic subunit alpha-1 (Q13131 whole entry, looked up): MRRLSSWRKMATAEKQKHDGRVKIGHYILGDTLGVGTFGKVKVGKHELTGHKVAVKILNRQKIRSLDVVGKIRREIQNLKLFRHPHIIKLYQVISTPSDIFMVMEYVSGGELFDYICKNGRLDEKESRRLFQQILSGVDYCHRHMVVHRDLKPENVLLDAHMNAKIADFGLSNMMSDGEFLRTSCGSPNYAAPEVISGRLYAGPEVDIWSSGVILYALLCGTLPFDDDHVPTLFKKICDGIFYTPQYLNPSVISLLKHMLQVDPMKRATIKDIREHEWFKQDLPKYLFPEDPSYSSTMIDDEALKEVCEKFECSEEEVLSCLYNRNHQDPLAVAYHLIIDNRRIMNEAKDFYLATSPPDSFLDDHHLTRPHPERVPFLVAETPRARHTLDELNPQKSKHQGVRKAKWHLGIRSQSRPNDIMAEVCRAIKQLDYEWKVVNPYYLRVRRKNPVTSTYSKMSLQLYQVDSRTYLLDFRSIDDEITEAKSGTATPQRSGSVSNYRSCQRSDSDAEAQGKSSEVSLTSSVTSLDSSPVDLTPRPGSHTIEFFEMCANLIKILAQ
smiles,measurement,setting,value
O[C@H]1CC[C@H](Nc2ncc3nc(Nc4c(F)cc(F)cc4F)n([C@H]4CCOC4)c3n2)CC1,% of control,[1],99%
same,% of control,[2],100%
CNC(=O)Nc1ccc(-c2nc(N3CC4CCC(C3)O4)c3cnn(C4CCC5(CC4)OCCO5)c3n2)cc1,% of control,[3],100%
CCC(=O)N1CCN(c2ccc(-n3c(=O)ccc4cnc5ccc(-c6cnc7ccccc7c6)cc5c43)cc2C(F)(F)F)CC1,% of control,[4],17%
Cc1cnc(Nc2ccc(F)cc2Cl)nc1-c1c[nH]c(C(=O)N[C@H](CO)c2cccc(Cl)c2)c1,Ki,[5],> 4 µM
